# Where “and” joins values, the source holds several entries; their conditions need not be identical. Equal entries are not always repeated. Entries after “also recorded” stand apart in the source; their conditions may differ.
# Tests used:
# [1] = tested on: insulin-AKT2-AS160 signaling in 3T3-F442A cells; assay: Insulin-stimulated AKT2-AS160 signaling western blot; format: cell-based, murine; settings: 96 h
# Description: Adipocytes were washed twice in ice-cold phosphate buffer saline and lysed in RIPA buffer (150 mM NaCl, 20 mM HEPES, 1% NP-40, 5 mM EDTA, pH 7.4) with proteinase/phosphatase inhibitors (Roche). The cell lysate was further sonicated in 10 s cycle intervals 2–3 times and centrifuged at 18,407×g for 30 min at 4 °C and repeated one more time to remove the excess fat. The supernatant was collected and further estimated for protein concentration using a DC protein assay kit (Bio-Rad). Fat and liver tissues were homogenized and suspended in RIPA buffer with inhibitors and further processed in a similar fashion as described above. HUVECs were also prepared in a similar fashion except the lysates were spun only once to remove the cells debris to obtain the clear supernatant. For islets, either human or mouse islets were washed twice with phosphate buffer saline (PBS) and lysed using RIPA buffer containing protease and phosphatase inhibitors. The lysate was further clarified by freezing in liquid nitrogen for about 10 s for three cycles. The supernatant was collected from the whole lysate centrifuged at 16,260×g for 20 min at 4 °C. […] For soleus muscle, the tissue was homogenized in a Bullet Blender homogenizer (Speed-9, Time-3 mins) in 8 volumes of ice-cold muscle homogenization buffer (50 mM Tris, 25 mM NaCl, 0.2% Nonidet P-40, 5 mM EGTA, 2.5 mM EDTA, 20 mM NaF, 20 mM Na4P2O7·10H2O, 2 mM Na3VO4, pH 7.4) supplemented with protease/phosphatase inhibitor (Roche). The homogenized lysate was centrifuged two times at 18,500×g for 20 min at 4 °C and supernatant was collected for protein estimation. Protein samples were further prepared by boiling in 2X or 4X Laemmli buffer. Approximately 10–60 µg of total protein was loaded in 4–15% gradient gel (Bio-Rad) for separation and protein transfer was carried out onto the PVDF membranes (Bio-Rad). […] The images were further analyzed for band intensities using ImageJ software. […]
# cadaveric human islets = assay: GSIS perifusion of palmitate-treated human islets; format: cell-based; settings: 10 µM for 4 days prior to and during 1 mM palmitate 16 h, washed off during GSIS
# Description: Cadaveric human islets were obtained from the Integrated Islet Distribution Program (IIDP), Prodo Laboratories, and the Alberta Diabetes Institute Islet Core. The human islets obtained from the Integrated Islet Distribution program and Prodo laboratories were exempt from Institutional Review Board approval under 45 CRR 46.101 (b) category (4) and 45 CFR 46.102 h, respectively. Human islets were obtained from the Alberta Diabetes Institute IsletCore at the University of Alberta in Edmonton (http://www.bcell.org/adi-isletcore.html) with the assistance of the Human Organ Procurement and Exchange (HOPE) program, Trillium Gift of Life Network (TGLN), and other Canadian organ procurement organizations. Islet isolation was approved by the Human Research Ethics Board at the University of Alberta (Pro00013094). All donors’ families gave informed consent for the use of pancreatic tissue in research. Human islets were cultured in RPMI media with 2% FBS overnight. […] Insulin concentrations were further determined using a commercially available ELISA kit (Mercodia). The area under the curve (AUC) for the high-glucose-induced insulin release was calculated for time points between 50 to 74/84 min. At the completion of the experiment, islets were further lysed by the addition of RIPA buffer and the amount of insulin was detected by ELISA.
# [2] = set-up: method as in PMID 3306216; settings: cited from earlier work
# T2D KKAy mice = assay: Plasma adiponectin and FGF21 ELISA; format: in vivo, mouse; settings: 5 mg/kg i.p. daily × 5 days, vs vehicle
# Description: Plasma adiponectin and FGF21 levels were measured using Mouse Adiponectin/Acrp30 Quantikine ELISA (Bio-Techne R&D Systems, MRP300) and mouse/rat FGF21 ELISA (BioVendor R&D, RD291108200R) kits respectively, as per the manufacturer’s instructions.
structure (smiles),measurement,setting,value
"CCCCC1(C2CCCC2)Cc2cc(OCCCC(=O)O)c(Cl)c(Cl)c2C1=O (stereo not shown) [SN-401, 4-((2-butyl-6,7-dichloro-2-cyclopentyl-1-oxo-2,3-dihydro-1H-inden-5-yl)oxy)butanoic acid]",insulin-stimulated levels of pAS160,"[1]; 500 nM, WT adipocytes",enhanced
same,insulin-stimulated levels of pAKT2,"[1]; 10 µM preadipocytes, 500 nM adipocytes",enhanced
same,effects on insulin-AKT2-AS160 signaling in SWELL1 KO adipocytes,"[1]; SWELL1 KO 3T3-F442A adipocytes, 500 nM",absent
same,glucose-stimulated insulin secretion after palmitate,cadaveric human islets,normalized
same,diuretic activity,[2],minimal diuretic activity
same,serum FGF21 increase,T2D KKAy mice,2.8 fold and 3 fold
same,serum adiponectin,T2D KKAy mice,unchanged; also recorded: no differences

# From paper PMC8831520, “Small molecule SWELL1 complex induction improves glycemic control and nonalcoholic fatty liver disease in murine Type 2 diabetes” (Nature Communications, 2022)
